How the values were obtained:
human neutrophils [1] = test: Total ROS production, luminol-amplified chemiluminescence; format: cell-based; conditions: 0.1-3 μM bletinib; 0.1 μM fMLF; dose-dependent
Experimental: Human neutrophils (2×10^6 cells/mL) were preincubated with 6 U mL^−1 horseradish peroxidase (HRP) and 37.5 μM luminol in a 96-well plate at 37° C. for 5 min. Cells were incubated with DMSO or bletinib for 5 min, followed by 0.1 μM fMLF stimulation. Chemiluminescence was then detected and analysed in real time on a 96-well chemiluminometer (Tecan Infinite F200 Pro; Mannedorf, Switzerland).

Fgr (Y412) = test: Immunoblotting of neutrophil lysates, Fgr phosphorylation; format: cell-based, human; conditions: 0.1 μM fMLF-stimulated neutrophils
Experimental: Neutrophils incubated with bletinib or DMSO at 37° C. for 5 min were stimulated with 0.1 μM fMLF for 30 s. The proteins were separated from neutrophil lysates through electrophoresis (12% sodium dodecyl sulphate-polyacrylamide gel electrophoresis) and then transferred to nitrocellulose membranes. The target proteins were identified through immunoblotting with specific antibodies against p38, p-p38, Akt, p-Akt S473, ERK, p-ERK, INK, p-JNK, Src, p-SFKs Y416, p-Src Y416, Lyn, p-Lyn (Y396), Fgr, p-Fgr (Y412), Hck, p-Hck (Y410), Btk, p-Btk Y223, Vav, and p-Vav (Y174) as well as with HRP-conjugated secondary anti-rabbit antibody (Cell Signaling Technology). The signal intensity was detected and quantified using the UVP BioSpectrum Imaging System (Analytik Jena, USA).

human neutrophils [2] = test: Neutrophil migration, microchemotaxis chamber; format: cell-based
Experimental: A microchemotaxis chamber with 3-μm filters (Millipore) was used to evaluate chemotactic migration of neutrophils. Neutrophils (5×10^6 cells/mL) treated with bletinib or DMSO for 5 min were placed in the top chamber, and 0.1 μM fMLF was added into the bottom chamber. The number of neutrophils that migrated from the top to the bottom chamber after incubation at 5% CO2 for 1 h was counted on a MoxiZ automatic cell counter (ORFLO).

CD11b (integrin αM) = test: Surface CD11b expression, flow cytometry; format: cell-based, human
Experimental: Neutrophils (5×10^5 cells/mL) were incubated with bletinib or DMSO for 5 min and then activated through incubation with 0.1 μM fMLF/1 μg/mL CB for 5 min. After centrifugation at 200×g for 8 min at 4° C., the cells were resuspended in 5% bovine serum albumin with FITC-conjugated antibodies against CD18 or CD11b on ice in the dark for 15 min. The fluorescent intensity was then analysed through fluorescence-activated cell sorting.

## COc1cc(O)cc(CCc2c(Cc3ccc(O)cc3)ccc(O)c2Cc2ccc(O)cc2)c1 [bletinib, 3,3′-dihydroxy-2′,6′-bis(p-hydroxybenzyl)-5-methoxybibenzyl]
Human neutrophils [1]
  ROS production, luminol-amplified chemiluminescence: significantly suppressed
Fgr (Y412)
  phosphorylation of Fgr (Y412): significantly inhibited
Human neutrophils [2]; 1-10 μM bletinib, 0.1 μM fMLF
  fMLF-induced transwell migration of neutrophils: significantly reduced
Human neutrophils [2]; IL-8, data not shown
  IL-8-induced neutrophil migration: inhibited
CD11b (integrin αM); 1-10 μM bletinib, 0.1 μM fMLF/CB
  expression of CD11b in fMLF-stimulated human neutrophils: significantly attenuated
CD11b (integrin αM); IL-8, data not shown
  IL-8-induced CD11b expression: restrained

— US20220339122A1, “METHODS FOR THE TREATMENT OF DISEASES ASSOCIATED WITH DYSREGULATED ACTIVATION AND RECRUITMENT OF NEUTROPHILS” (Chang Gung University, priority 2021, published 2022)
